The values that follow come from patent publication US20130259929A1, “USE OF A PHOSPHOPEPTIDE ABLE TO BLOCK HER3/P85 INTERACTION FOR THE TREATMENT OF HER2 HYPER-EXPRESSING TUMOURS” (priority 2010, published 2013).

In assay [1] the test system is PI3K activity measured as Akt phosphorylation. Kind of assay: Akt phosphorylation (Western blot) after peptide transfection. The format is cell-based, human. Here is the method: (§1) Peptide transfection. In order to inhibit the p85 and ErbB3 interaction, MCF7, BT474 and MDA-MB-453 cell lines have been transfected using 80, 100, and 180 μg, respectively, of the following phosphopeptides:
(§2) Treatments and lmmunodecorations. […] Briefly the cells have been plated at 5×10^5 concentration in 60 mm plates. […] At the end of the treatment the cells have been lysed with RIPA buffer [150 mM NaCl, 1% NP-40, 0,5% sodium deoxycholate (DOC), 0.1% SDS, 50 mM TrisHCl (pH 8), 1 mM PMSF, 1 mM EGTA, 50 mM NaF, 50 mM Na3VO4 and protease inhibitors (Roche, Milano, IT)] in order to analyze the expression levels of phosphorylated and total ErbB-3, ErbB-2, ERK and HSP-70 proteins. In order to analyze the levels of Akt phosphorylation and expression, the cells have been lysed in NP-40 buffer [1% NP-40, 10% glycerol, 137 mM NaCl, 20 mM TrisHCl (pH 7.4), 50 mM NaF, 1 mM PMSF, 5 mM Na3VO4, protease inhibitors (Roche, Milano, IT)]. Cell lysates have been incubated on ice for 20 minutes and centrifuged at 14000 rpm for 20 minutes. RIPA buffer obtained cell extracts have been boiled for 5 minutes at 95° C., while NP40 buffer lysed samples have been boiled at 65° C. for 5 minutes. Samples have been subjected to SDS-PAGE and transferred on nitrocellulose filters (Bio-Rad, Milan, IT). Then the filters have been incubated with interest antibodies, washed and incubated with specific secondary horse radish peroxidase (HRP) conjugated antibodies. After thorough washing, nitrocellulose peroxidase activity has been detected by chemiluminescence (Lite-blot-Euroclone, Milano, IT)

A further assay addresses p85 (Homo sapiens, UniProt P27986). Particulars: binding to p85; cited from earlier work.
The test system of a further assay is MAPK phosphorylation. Kind of assay: MAPK (ERK1/2) phosphorylation (Western blot) after peptide transfection. The format is cell-based, human. The settings on record: MCF7, BT474 and MDA-MB-453 cells (FIG. 4A); Herceptin where combined. Here is the method: as §1
as §2, with “Samples have been subjected to SDS-PAGE and transferred on nitrocellulose filters (Bio-Rad, Milan, IT). Then the filters have been incubated with interest antibodies, washed and incubated with specific secondary horse radish peroxidase (HRP) conjugated antibodies.” left out

Assay [2] concerns the target T1, HER3 binding to GST-N-SH2p85 fusion protein (Homo sapiens, UniProt P27986).
T1 construct: containing SH2 domains in N-terminal portion of p85 sub-unit
Kind of assay: GST pull-down. The settings on record: lysates of BT474, MCF7 and MDA-MB-453 cells, in vitro (FIG. 2A, FIG. 3). How it is done:
GST pull-down. MCF-7, BT474 and MDA-MB-453 cell lines have been washed 2 times with cold PBS and extracted with lysis buffer [(50 mM Tris HCl (pH 7.4), 250 mM NaCl, 0,1% Triton X-100, 5 mM EDTA, 50 mM NaF, 1 mM PMSF, 5 mM Na3VO4 and 50 mmol/L of protease inhibitors (Roche, Milano, IT)]. After 20 minute ice-cold incubation, the lysates have been clarified by centrifugation at 14000 rpm for 20 minutes. The cellular extracts (1 mg sample) have been incubated for 4 hours at 4° C. in the presence of GST bound gluthatione-agarose beads or GST-p85 fusion protein (kindly supplied by doctor S. Giordano), in the presence or absence of 1257 phosphopeptide or scr peptide used as control. Then the interaction complexes have been washed six times with lysis buffer and subsequently beads eluted using Laemli Buffer 2× [(140 mM SDS, 432 mM Glycerol, 1.6 mM Bromophenol blue, 120 mM Tris HCl (pH 6.8), 8% β-mercaptoethanol)]. The proteins have been separated using 8% SDS-PAGE and transferred on nitrocellulose filter. The filter has been then immunodecorated with anti ErbB3 antibody.
As in FIG. 2A is apparent that 1257 phosphopeptide effectively in vitro binds p85 sub-unit thus inhibiting HER3 receptor binding.

Another assay relates to MCF7/Luc cells. As to the kind of experiment: In vivo growth of peptide-transfected MCF7/Luc cells inoculated s.c. On the set-up: species or system SCID mice. Particulars: s.c. inoculation of transfected MCF7 cells. How it is done:
Xeno-grafts. In vivo tests have been carried out using 40 day old SCID female mice (Harlan Laboratories, Milan, IT). At day 0, animals have been totally anesthetized with intramuscular injection of 400 μg/animal (average weight 25 g) of Zoletil (Virbac) containing 0.12% Xylor (Xylazine), and transplanted subcutaneously (s.c.), in intrascapular mouse region with pellet of […] (1.7 mg/sustained release pellet over 60 days, Innovative Research of America, Sarasota, Fla.). On the next day, 5×10^6 proliferating and scr and 1257 peptide previously transfected, as above described, MCF7 or BT474 cells, have been re-suspended in 0.1 ml of Matrigel (BD Biosciences) and subcutaneously inoculated in each mouse. […] Tumour growth has been monitored two times weekly using calibration along two orthogonal axes: length (L) and […]. The tumour volume (V) has been calculated using the formula V=L*(W2)/2. All the procedures relating to animals and treatment thereof have been carried out according institutional guidelines.
Generation of mammary tumour luminescent cells. Mammary tumour MCF7 cell lines stably transfected using pGL4.51 (luc2/CMV/Neo) expression vector, produced by Promega (Me, IT), have been transfected using scr or 1257 phosphopeptide ([…]×5×10^4 cells/mouse) and after 30 h subcutaneously inoculated in SCID mice (5×10^6 cells/mouse) in 200 μl (1:1 Matrigel: cell suspension in serum free medium). Mice have been in vivo imaged 20′ after inoculation and once weekly over 11 weeks. The animals have been anesthetized, as above reported, and subjected to intraperitoneal injection with 200 μl of luciferin (Caliper, Mi, IT); 10′ after incubation photon emission has been analyzed at 3′ minute exposure using Xenogen Ivis Lumina 2 machine. Growth of these cells has been monitored as reported in xenografts section.
Then it has been verified whether 1257 phosphopeptide was effective also in vivo. To this purpose immunocompromised SCID mice have been used. In the presence of oestrogen tablets, 5×10^6 control cells transfected with scr peptide or transfected with 1257 peptide have been injected subcutaneously between mouse scapulae. In order to verify the viability of phosphopeptide transfected cells in animals we have generated a stable luciferase gene expressing MCF7 cell line (MCF7/Luc).

Non-standard residues stand in square brackets, D forms with d. No end group written: not given here. pY = N[C@@H](Cc1ccc(OP(=O)(O)O)cc1)C(=O)O

T1 sequence (P27986 333-428 limits assumed): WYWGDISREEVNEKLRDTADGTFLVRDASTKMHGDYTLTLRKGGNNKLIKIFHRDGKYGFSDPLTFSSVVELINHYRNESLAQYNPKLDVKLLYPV
Chain of p85 (P27986 whole entry): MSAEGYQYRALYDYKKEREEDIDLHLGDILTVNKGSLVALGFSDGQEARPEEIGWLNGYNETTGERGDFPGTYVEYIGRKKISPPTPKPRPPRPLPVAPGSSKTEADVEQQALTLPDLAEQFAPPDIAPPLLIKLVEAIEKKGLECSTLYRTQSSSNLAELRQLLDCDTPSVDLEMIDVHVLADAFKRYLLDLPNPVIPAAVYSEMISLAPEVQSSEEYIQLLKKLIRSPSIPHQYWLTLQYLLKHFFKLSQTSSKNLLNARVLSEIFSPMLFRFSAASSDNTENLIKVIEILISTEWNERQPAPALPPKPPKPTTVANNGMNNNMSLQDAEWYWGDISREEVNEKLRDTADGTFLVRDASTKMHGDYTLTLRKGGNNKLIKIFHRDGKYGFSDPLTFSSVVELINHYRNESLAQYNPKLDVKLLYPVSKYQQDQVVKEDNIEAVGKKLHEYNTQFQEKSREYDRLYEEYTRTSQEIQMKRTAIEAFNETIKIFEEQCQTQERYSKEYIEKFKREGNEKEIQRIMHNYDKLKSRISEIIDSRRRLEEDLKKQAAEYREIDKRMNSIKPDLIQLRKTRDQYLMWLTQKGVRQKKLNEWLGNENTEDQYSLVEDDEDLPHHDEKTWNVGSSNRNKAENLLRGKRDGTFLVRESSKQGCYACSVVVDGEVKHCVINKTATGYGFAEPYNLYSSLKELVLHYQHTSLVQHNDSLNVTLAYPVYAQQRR

Regarding “PTAGTTPDEDpYEYMNRQR (PTAGTTPDED[pY]EYMNRQR; listed as Homo sapiens) [1241 phosphopeptide, second HER3-derived phosphopeptide used for preliminary experiments, reference compound]”, in assay [1] (MCF7 cells, peptide transfection at different doses (FIG. 12)), the “inhibition of PI3K activity measured as inhibition level of Akt phosphorylation” value is “not suitable to remarkably inhibit PI3K activity”. For the same substance, the “association constant (Ka)” value in the assay with p85 is on record as 824.

Take “PYQMRpYNADTDGERTTEP (PYQMR[pY]NADTDGERTTEP) [scr phosphopeptide, scramble (scr), i.e. not specific, phosphopeptide used as control, reference compound]”: the “phosphorylation of Akt” value in assay [1] (MCF7, BT474 and MDA-MB-453 cells (FIG. 4A), Herceptin where combined) is listed as “does not result in any effect”. For the same substance, in the assay on MAPK phosphorylation, the MAPK phosphorylation entry is listed as “does not result in any effect”. Also, the “inhibition of HER3 and p85 SH2 domain binding” value in assay [2] was “the binding is as efficient as in the absence of peptide”. Moreover, the “time after inoculation at which tumours were calibratable” value in the assay on MCF7/Luc cells is recorded as “three”. In the assay on MCF7/Luc cells (SCID mice), this substance yielded a tumour take of 100%.

Regarding “not phosphorylated 1257 peptide: Not phosphorylated 1257 peptide used as further negative control (RDGGGPGGDYAAMGACPA; not fully specified) [reference compound]”, the “inhibition of Akt phosphorylation” value in assay [1] (MCF7 cells, 48 hr after Lipofectamine transfection (FIG. 3)) is reported as “unable to inhibit Akt phosphorylation”. Moreover, the “inhibition of HER3 and p85 SH2 domain binding” value in assay [2] is “does not inhibit p85 and ErbB-3 binding”.
